Test results as given in patent publication US20230312651A1, “Cyclic Peptide, Peptide Complex, and Drug Composition Containing Said Cyclic Peptide and/or Said Peptide Complex” (The University of Tokyo, priority 2020, published 2023).
pKd: −log10 of the molar value. “Also recorded” adds a separate entry of the source. Starred links: 1 amine or outer side, 2 acyl side, 3 side chain; linkers in the order of their positions; H or OH if unused. Positions of bridges follow the written chain, without caps; N, C: chain ends. Non-standard residues stand in square brackets, D forms with d. Residues, ends and D or L forms follow the SMILES beside them. Chains are numbered I, II in the order given. NH(CH2CH2O)6CH2CO = O=C(COCCOCCOCCOCCOCCOCCN[*:1])[*:2]; Dap = NC[C@H](N)C(=O)O

Assays:
[1] = molecular target: T1, extracellular domain of hTrkB (Homo sapiens, UniProt Q16620); assay: SPR binding kinetics (Biacore T200), hTrkB; settings: Monomer (cyclic peptide), 1:1 binding model, 1 to 1000 nM, read-out: binding affinity KD, TrkB
T1 construct: the extracellular domain of hTrkA, hTrkC, and hTrkB
Method: (§1) With respect to the binding kinetics (binding affinity (dissociation constant) KD) of the cyclic peptides towards the extracellular domain of hTrkA, hTrkC, and hTrkB (which will hereinafter be called “hTrkA-C proteins”, collectively) immobilized on a sensor chip via a His6-tag, quantitative measurements making use of surface plasmon resonance (SPR) were carried out to evaluate the binding intensity and selectivity of the cyclic peptide to hTrkB, compared with that to hTrkA and hTrkC.
(§2) The binding kinetics of each peptide towards the hTrkA-C proteins were determined using Biacore T200 (GE Healthcare). The buffer used was HBS-P+ (10 mM HEPES, 150 mM NaCl, and 0.05 vol% surfactant P20, pH 7.4) containing 0.1 vol% DMSO and 1 mM b-dodecyl-maltoside. 100 nM hTrkA-C proteins were immobilized on a Ni^2+ treated NTA chip in accordance with the manufacturer’s instructions (baseline response 1000 to 3000 refraction units). Peptides were injected as an analyte at a flow rate of […] and binding kinetics was modelled using a 1:1 binding model.

[2] = molecular target: extracellular domain of hTrkA (Homo sapiens, UniProt P04629); assay: SPR binding kinetics (Biacore T200), hTrkA; design: the extracellular domain of hTrkA, hTrkC, and hTrkB; settings: 1:1 binding model
Method: as §1, §2

[3] = molecular target: T2, extracellular domain of hTrkC (Homo sapiens, UniProt Q16288); assay: SPR binding kinetics (Biacore T200), hTrkC; settings: 1:1 binding model
T2 construct: the extracellular domain of hTrkA, hTrkC, and hTrkB
T2 sequence (Q16288 32-429 limits assumed): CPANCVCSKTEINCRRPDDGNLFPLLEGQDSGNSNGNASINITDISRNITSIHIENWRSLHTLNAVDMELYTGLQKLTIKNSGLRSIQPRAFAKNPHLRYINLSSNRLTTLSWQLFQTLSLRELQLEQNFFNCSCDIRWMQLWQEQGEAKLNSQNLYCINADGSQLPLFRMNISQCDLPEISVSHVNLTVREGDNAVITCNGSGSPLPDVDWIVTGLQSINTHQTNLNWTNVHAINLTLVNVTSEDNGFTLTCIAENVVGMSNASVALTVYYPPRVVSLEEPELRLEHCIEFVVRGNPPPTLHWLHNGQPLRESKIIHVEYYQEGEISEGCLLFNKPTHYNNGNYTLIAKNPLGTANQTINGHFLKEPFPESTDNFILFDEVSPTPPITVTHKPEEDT
Method: as §1, §2

Arc = assay: qRT-PCR of Arc mRNA in primary cortical neurons; assay type: cell-based; settings: 1 nM, one hour, primary cortical neurons (DIV6); p<0.01
Method: (§3) The total RNA was quantitatively and qualitatively verified by a NanoDrop spectrometer (Thermo Fisher Scientific) and electrophoresis in a formaldehyde gel.
(§4) Next, 500 ng of the total RNA was reverse-transcribed using Super Script II (Thermo Fisher Scientific). Quantitative PCR was carried out using a SYBR Green real-time PCR system by the previously reported method (Akashi, M.; Takumi, T., The orphan nuclear receptor RORalpha regulates circadian transcription of the mammalian core-clock Bmal1. Nat Struct Mol Biol 2005, 12 (5), 441-8.). A Gapdh gene was used as an internal control. The following primer sequences were respectively used: Gapdh (Forward: 5′-[…]-3′ and reverse: 5′-[…]-3′) (represented by SEQ ID NOS: 14 and 15, respectively), c-fos (Forward: 5′-[…]-3′ and reverse: 5′-[…]-3′) (represented by SEQ ID NOS: 16 and 17, respectively), and Arc (Forward: 5′-[…]-3′ and reverse: 5′-[…]-3′)(represented by SEQ ID NOS: 18 and 19, respectively).

[4] = system: primary hippocampal neurons; assay: Immunocytochemistry for evaluation of axonal outgrowth; assay type: cell-based; settings: for axonal outgrowth: p<0.01 vs DMSO
Method: The cells were washed twice with 0.1 M phosphate-buffered physiological saline (PBS) and immobilized for 15 minutes with 2% paraformaldehyde (PFA)/4% sucrose (in 0.1 M PBS). After washing three times with PBS, the cells were subjected to permeabilization for 3 minutes with PBS (P\BST) containing 0.2% Triton-X and incubated for one hour with a blocking solution (PBST containing 5% normal goat serum) to prevent non-specific binding. Then, the cells were incubated overnight at 4° C. with a primary antibody diluted with the blocking solution (rabbit anti-Tau polyclonal antibody, 1:1,000 dilution; cat#ab64193 (abcam); mouse anti-MAP2 monoclonal antibody, 1:1,000 dilution, M4403 (Sigma)). After washing of the cells with PBST for 10 minutes was performed four times, they were incubated at room temperature for 2 hours with a fluorescently-labeled secondary antibody diluted with the block solution (Alexa Fluor 488-labeled goat anti-mouse IgG antibody, 1:1,000 dilution, A-11029; Alexa Fluor 568-labeled goat anti-rabbit IgG antibody, 1:1,000 dilution, A-21069 (Thermo Fisher Scientific)).
Next, after washing of the cells with PBST for 10 minutes was performed four times, they were mounted with […] containing DAPI (H-1200 (Vector Laboratories)) and an image was obtained using a Virtual Slide microscope system (VS120 (Olympus)) having a x20 objective lens. The images were analyzed using a neuron J plugin in Image J software and the neurite length tracing and quantification were performed (Meijering, E.; Jacob, M.; Sarria, J. C.; Steiner, P.; Hirling, H.; Unser, M., Design and validation of a tool for neurite tracing and analysis in fluorescence microscopy images. Cytometry A 2004, 58 (2), 167-76.).

c-fos = assay: qRT-PCR of c-fos mRNA in primary cortical neurons; assay type: cell-based; settings: 1 nM, one hour, primary cortical neurons (DIV6); p<0.01
Method: as §3, §4

mouse TrkB = molecular target: T3, mouse TrkB (Mus musculus, UniProt P15209); assay: Western blot of phosphorylated Trk in primary mouse hippocampal neurons; assay type: cell-based
T3 construct: induce phosphorylation of mouse TrkB in primary mouse hippocampal neurons; endogenous in cells; host or cells: primary mouse hippocampal neurons (DIV6)
T3 sequence (P15209 32-821): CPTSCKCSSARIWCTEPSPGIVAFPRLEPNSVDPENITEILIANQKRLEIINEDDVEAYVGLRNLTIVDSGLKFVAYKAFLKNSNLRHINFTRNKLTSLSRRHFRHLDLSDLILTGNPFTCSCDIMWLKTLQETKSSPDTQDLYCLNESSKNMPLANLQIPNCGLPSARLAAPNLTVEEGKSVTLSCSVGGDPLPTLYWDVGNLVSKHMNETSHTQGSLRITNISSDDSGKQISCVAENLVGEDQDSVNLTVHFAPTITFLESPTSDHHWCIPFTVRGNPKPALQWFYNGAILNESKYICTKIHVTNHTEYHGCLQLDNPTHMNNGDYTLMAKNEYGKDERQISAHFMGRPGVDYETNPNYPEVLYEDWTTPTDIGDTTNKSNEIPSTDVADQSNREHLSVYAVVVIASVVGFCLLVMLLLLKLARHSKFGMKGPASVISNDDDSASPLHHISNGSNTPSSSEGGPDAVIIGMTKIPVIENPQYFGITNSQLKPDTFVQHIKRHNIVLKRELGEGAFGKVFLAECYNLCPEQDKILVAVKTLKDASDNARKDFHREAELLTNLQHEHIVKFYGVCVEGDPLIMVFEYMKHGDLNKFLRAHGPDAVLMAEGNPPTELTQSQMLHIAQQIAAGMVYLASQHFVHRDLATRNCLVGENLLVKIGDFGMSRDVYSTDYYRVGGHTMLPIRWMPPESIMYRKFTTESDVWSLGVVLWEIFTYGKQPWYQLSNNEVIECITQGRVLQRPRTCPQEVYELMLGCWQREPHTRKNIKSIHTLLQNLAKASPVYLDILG
Method: (§5) After washing with 0.1 M PBS twice, cells were lysed in a radio-immunoprecipitation assay (RIPA) buffer containing 50 mM Tris-HCI (pH 7.4), 150 mM NaCl, 2 mM EDTA, 1% Nonidet P-40, 0.5% Na-deoxycholate, 0.1% SDS, 50 mM NaF, 0.2 mM Na3VO4, 10 µg/mL aprotinin, 10 µg/mL leupeptin, and 1 mM phenylmethylsulfonyl fluoride on ice for 30 minutes. After ultrasonic treatment and centrifugation at 20,000 ×g for 30 minutes, the supernatant was subjected to SDS-PAGE. Protein amount was quantified using Bicinchoninic Acid Kit (BCA-1, Sigma).
The cell lysate (protein amount: 20 µg in P-TrkB, 10 µg in TrkB, and 5 µg in Akt and Erk) was separated using 8% polyacrylamide gel and transferred to a polyvinylidene difluoride membrane (Merck Millipore, Massachusetts, USA). The resulting membrane was blocked for 1 hour with a blocking buffer (5% bovine serum albumin (BSA) tris-buffered physiological saline (TBST) containing 0.05% tween-20), followed by incubation overnight at 4° C. in a blocking buffer containing a primary antibody (rabbit anti-TrkB antibody, 1:1,000 dilution, Cat#4603; rabbit anti-phosphorylated Trk antibody, 1:1,000 dilution, Cat#9141; mouse anti-pan-Akt antibody, 1:2,000 dilution, Cat#2920; rabbit anti-phosphorylated Akt (S473) antibody, 1:2,000 dilution, Cat#4060; rabbit anti-Erk½ antibody, 1:2,000 dilution, Cat#4695; mouse anti-phosphorylated Erk½ antibody, 1:2,000 dilution, Cat#9106 (Cell Signaling Technology)). After washing with TBST for 10 minutes four times, the membrane was incubated with a secondary antibody (peroxidase-conjugated goat anti-rabbit IgG antibody, 1:10,000 dilution, Cat#111-035-003 (Jackson Immuno Research); peroxidase-conjugated sheep anti-mouse IgG antibody, 1:10,000 dilution, Cat#NA9310 (GE Healthcare)) for one hour at room temperature.
Finally, after the resulting membrane was washed with TBST, an immune-positive bands were detected by a chemiluminescence method using a Luminata Crescendo HPR substrate (Merck Millipore). The relative phosphorylation level of each kinase was calculated as a ratio of phosphorylated kinase/all kinases. […]

Akt = assay: Western blot of phosphorylated Akt (S473) in primary hippocampal neurons; assay type: cell-based, mouse; settings: 1 nM, 15 minutes, primary hippocampal neurons (DIV6); p<0.01 vs DMSO
Method: as §5
(§6) The cell lysate (protein amount: 20 µg in P-TrkB, 10 µg in TrkB, and 5 µg in Akt and Erk) was separated using 8% polyacrylamide gel and transferred to a polyvinylidene difluoride membrane (Merck Millipore, Massachusetts, USA). […]
(§7) Finally, after the resulting membrane was washed with TBST, an immune-positive bands were detected by a chemiluminescence method using a Luminata Crescendo HPR substrate (Merck Millipore). The relative phosphorylation level of each kinase was calculated as a ratio of phosphorylated kinase/all kinases.

Erk½ = assay: Western blot of phosphorylated Erk½ in primary hippocampal neurons; assay type: cell-based, mouse; settings: 1 nM, 15 minutes, primary hippocampal neurons (DIV6); p<0.01 vs DMSO
Method: as §5, §6, §7

[5] = system: 40 RTKs (receptor tyrosine kinases); assay: Phospho-RTK array evaluation (off-target activity); assay type: cell-based, mouse; settings: primary hippocampal neurons (DIV6)
Method: Comprehensive study of the phosphorylated tyrosine kinase receptor was conducted using a phospho-RTK array in accordance with the manufacturer’s protocol (Proteome Profiler mouse Phospho-RTK Array Kit, ARY014, R&D Systems). The phosphorylation level was evaluated by pixel density and quantified by Image J Software.

TrkB = TrkB (Homo sapiens, UniProt Q16620); settings: Non-Patent Document 3; cited from earlier work
Chain of TrkB (Q16620 32-822, species assumed): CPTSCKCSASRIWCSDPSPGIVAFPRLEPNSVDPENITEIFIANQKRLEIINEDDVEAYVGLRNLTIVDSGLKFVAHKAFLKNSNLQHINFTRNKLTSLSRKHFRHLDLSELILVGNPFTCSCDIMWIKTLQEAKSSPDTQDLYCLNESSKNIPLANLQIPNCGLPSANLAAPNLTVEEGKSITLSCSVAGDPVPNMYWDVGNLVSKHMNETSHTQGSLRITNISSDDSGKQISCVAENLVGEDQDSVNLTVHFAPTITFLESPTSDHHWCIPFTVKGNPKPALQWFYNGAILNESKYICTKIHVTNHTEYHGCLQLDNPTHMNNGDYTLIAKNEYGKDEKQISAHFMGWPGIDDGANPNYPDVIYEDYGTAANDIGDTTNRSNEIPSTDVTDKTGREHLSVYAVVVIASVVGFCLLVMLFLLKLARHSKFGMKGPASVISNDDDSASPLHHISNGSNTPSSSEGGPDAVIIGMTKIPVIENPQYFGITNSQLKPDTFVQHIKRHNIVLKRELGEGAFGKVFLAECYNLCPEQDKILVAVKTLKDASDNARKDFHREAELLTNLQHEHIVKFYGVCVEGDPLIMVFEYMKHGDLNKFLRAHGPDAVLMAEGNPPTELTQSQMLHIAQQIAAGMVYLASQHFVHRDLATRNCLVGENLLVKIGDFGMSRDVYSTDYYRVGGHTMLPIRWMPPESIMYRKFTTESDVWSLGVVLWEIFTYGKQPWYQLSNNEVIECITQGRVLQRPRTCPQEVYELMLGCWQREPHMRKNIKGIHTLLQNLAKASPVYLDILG

In the case of CC(C)C[C@@H]1NC(=O)[C@H](CCCNC(=N)N)NC(=O)[C@H](Cc2ccccc2)NC(=O)[C@H](CCCNC(=N)N)NC(=O)[C@@H]2CCCN2C(=O)[C@H]([C@@H](C)O)NC(=O)[C@H](CCC(N)=O)NC(=O)[C@H](Cc2c[nH]c3ccccc23)NC(=O)[C@H](Cc2ccccc2)NC(=O)[C@H](CCCNC(=N)N)NC(=O)[C@H](Cc2ccc(O)cc2)NC(=O)CSC[C@@H](C(=O)NCC(=O)N[C@@H](CO)C(=O)NCC(=O)N[C@@H](CO)C(=O)NCC(=O)N[C@@H](CO)C(N)=O)NC1=O [TrbL2] ({CH2CO}-YRFWQTPRFRLCGSGSGS-NH2; thioether N-12), the pKd [1] was 7.15, the pKd ([2]; Monomer (cyclic peptide), 1 to 1000 nM, read-out: binding affinity KD, TrkA) was 7.00 and the “binding affinity KD, TrkC” value ([3]; Monomer (cyclic peptide), 1 to 1000 nM) was “N.B”.

With CC(C)C[C@@H]1NC(=O)[C@H](Cc2ccc(O)cc2)NC(=O)CSC[C@@H](C(=O)NCC(=O)N[C@@H](CO)C(=O)NCC(=O)N[C@@H](CO)C(=O)NCC(=O)N[C@@H](CO)C(=O)NCCOCCOCCOCCOCCOCCOCC(=O)NC[C@H](NC(=O)COCCOCCOCCOCCOCCOCCNC(=O)[C@H](CO)NC(=O)CNC(=O)[C@H](CO)NC(=O)CNC(=O)[C@H](CO)NC(=O)CNC(=O)[C@@H]2CSCC(=O)N[C@@H](Cc3ccc(O)cc3)C(=O)N[C@@H](CC(C)C)C(=O)N[C@@H](CCCNC(=N)N)C(=O)N3CCC[C@H]3C(=O)N[C@@H](CCCNC(=N)N)C(=O)N[C@@H](Cc3ccc(O)cc3)C(=O)N[C@@H](CCCCN)C(=O)N[C@@H](Cc3ccccc3)C(=O)N[C@@H](Cc3c[nH]c4ccccc34)C(=O)N2)C(N)=O)NC(=O)[C@H](Cc2c[nH]c3ccccc23)NC(=O)[C@H](Cc2ccccc2)NC(=O)[C@H](CCCCN)NC(=O)[C@H](Cc2ccc(O)cc2)NC(=O)[C@H](CCCNC(=N)N)NC(=O)[C@@H]2CCCN2C(=O)[C@H](CCCNC(=N)N)NC1=O [DiTrbL3] (I: {CH2CO}-YLRPRYKFWCGSGSGS[NH(CH2CH2O)6CH2CO][Dap]-NH2 / II: {CH2CO}-YLRPRYKFWCGSGSGS[NH(CH2CH2O)6CH2CO]; amide I:18-II:C; thioether I:N-I:10, II:N-II:10) the “mRNA expression of Arc” value (Arc) was “significantly increased”, the axonal outgrowth ([4]; 10 nM, DIV0 to 3) was “significantly reinforced the axonal outgrowth” and the axonal outgrowth ([4]; 100 nM, DIV0 to 3) was “significantly reinforced the axonal outgrowth”. For the same compound, the “axonal length of primary neurons” value ([4]; treated for 3 days (DIV0 to 3)) was “elongated”, the “mRNA expression of c-fos” value (c-fos) was “significantly increased” and the “TrkB phosphorylation, dose titration” value (mouse TrkB; 0.2 nM, p<0.01 vs DMSO) was “obviously induces TrkB phosphorylation”. For the same compound, the “phosphorylation of TrkB” value (mouse TrkB; 1 nM, 15 minutes, primary mouse hippocampal neurons (DIV6)) was “induced phosphorylation of TrkB”, the “phosphorylation of Akt” value (Akt) was “drastically activated phosphorylation; also recorded: a significant difference is present in induction between DMSO and DiTrbL3” and the “phosphorylation of Erk½” value (Erk½) was “drastically activated phosphorylation; also recorded: a significant difference is present in induction between DMSO and DiTrbL3”. The “RTK phosphorylation in phospho-RTK array” value ([5]; 1 nM, 40 RTKs) was “phosphorylated only TrkB”, the “binding affinity KD, TrkA” value ([2]; Homodimer (peptide complex)) was “N.B” and the “binding affinity KD, TrkC” value ([3]; Homodimer (peptide complex)) was “N.B”.

In the case of “BDNF: brain-derived neurotrophic factor, natural protein agonist of TrkB, positive control”, the “axonal length of primary neurons” value ([4]; 2 nM BDNF, DIV0 to 3) is listed as “elongated”, the “phosphorylation of Trk” value (mouse TrkB; 0.1 nM, 15 minutes, primary mouse hippocampal neurons (DIV6)) is listed as “induced phosphorylation of Trk” and the “affinity for TrkB relative to that of p75” value (TrkB) is listed as “at least 10 times”. For the same compound, the “RTK phosphorylation in phospho-RTK array” value ([5]; 0.1 nM, incubation for one hour as printed) was “caused phosphorylation of TrkB”.
